The record followed here is patent US9957247B2, “SecA inhibitors and methods of making and using thereof” (Georgia State University Research Foundation, Inc., priority 2012, dated 2018).

One assay deals with S. aureus Mu3. Nature of the assay: Bacteriostatic effect, S. aureus Mu3. The conditions noted are these: Staphylococcus aureus, MU3, read-out: Bacteriostatic effect, MIC, S. aureus Mu3.
The next assay addresses EcSecA (Escherichia coli, UniProt P10408). Nature of the assay: cell-based.
For a further assay, the target named is BsSecA (Bacillus subtilis, UniProt P28366). Nature of the assay: cell-based. Set-up: species or system B. subtilis. The note with it: IC50, Ion Channel activity, BsSecA, Table 1.
BsSecA, sequence (P28366 whole entry): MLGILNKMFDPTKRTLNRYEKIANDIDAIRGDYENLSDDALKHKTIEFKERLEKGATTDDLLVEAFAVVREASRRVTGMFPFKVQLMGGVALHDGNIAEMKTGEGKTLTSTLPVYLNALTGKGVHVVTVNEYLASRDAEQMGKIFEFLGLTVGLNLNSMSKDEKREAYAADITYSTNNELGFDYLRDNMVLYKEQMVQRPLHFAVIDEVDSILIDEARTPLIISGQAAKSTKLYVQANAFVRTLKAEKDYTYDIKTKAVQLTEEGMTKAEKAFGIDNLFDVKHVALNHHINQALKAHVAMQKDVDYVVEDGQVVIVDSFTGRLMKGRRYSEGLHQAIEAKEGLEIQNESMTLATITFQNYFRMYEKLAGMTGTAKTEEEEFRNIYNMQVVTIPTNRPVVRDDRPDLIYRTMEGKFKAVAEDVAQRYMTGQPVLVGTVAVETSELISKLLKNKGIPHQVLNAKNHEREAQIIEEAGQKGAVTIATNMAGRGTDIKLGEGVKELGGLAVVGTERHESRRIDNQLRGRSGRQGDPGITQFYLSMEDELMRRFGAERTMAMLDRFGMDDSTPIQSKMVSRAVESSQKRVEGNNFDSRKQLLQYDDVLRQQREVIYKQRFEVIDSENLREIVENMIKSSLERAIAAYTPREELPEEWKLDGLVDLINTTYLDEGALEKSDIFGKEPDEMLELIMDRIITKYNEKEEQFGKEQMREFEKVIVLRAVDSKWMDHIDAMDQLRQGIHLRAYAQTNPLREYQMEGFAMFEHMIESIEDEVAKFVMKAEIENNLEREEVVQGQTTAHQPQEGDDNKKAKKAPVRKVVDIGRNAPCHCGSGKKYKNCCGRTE
The target of the next assay is BaSecA1 (Bacillus anthracis, UniProt Q81X26). Nature of the assay: cell-based. The note with it: IC50, Ion Channel activity, BGaSecA 1.
BaSecA1, sequence (Q81X26 whole entry, looked up): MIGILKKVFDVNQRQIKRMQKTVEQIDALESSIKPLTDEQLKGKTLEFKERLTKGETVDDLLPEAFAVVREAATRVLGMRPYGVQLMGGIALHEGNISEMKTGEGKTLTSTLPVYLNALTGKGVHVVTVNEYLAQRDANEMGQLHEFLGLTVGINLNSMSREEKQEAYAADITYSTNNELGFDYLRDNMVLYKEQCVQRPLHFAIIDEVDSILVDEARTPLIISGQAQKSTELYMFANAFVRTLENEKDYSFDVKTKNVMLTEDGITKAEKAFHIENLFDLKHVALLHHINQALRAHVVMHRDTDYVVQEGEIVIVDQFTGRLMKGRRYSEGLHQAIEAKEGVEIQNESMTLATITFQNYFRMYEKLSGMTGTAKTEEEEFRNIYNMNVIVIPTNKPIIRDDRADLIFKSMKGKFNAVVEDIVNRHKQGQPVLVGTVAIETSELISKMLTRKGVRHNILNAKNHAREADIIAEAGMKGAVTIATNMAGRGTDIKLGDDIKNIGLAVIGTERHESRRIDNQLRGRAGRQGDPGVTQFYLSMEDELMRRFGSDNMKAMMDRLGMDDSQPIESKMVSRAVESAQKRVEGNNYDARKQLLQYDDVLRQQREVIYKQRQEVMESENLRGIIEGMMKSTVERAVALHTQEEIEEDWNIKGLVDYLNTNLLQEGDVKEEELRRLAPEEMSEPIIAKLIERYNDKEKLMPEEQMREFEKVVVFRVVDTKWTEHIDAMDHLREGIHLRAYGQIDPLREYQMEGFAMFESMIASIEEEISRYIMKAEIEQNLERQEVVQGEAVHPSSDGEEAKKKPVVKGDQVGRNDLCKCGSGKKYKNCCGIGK
A further assay concerns S. aureus Mu50. The assay can be described thus: Bactericidal effect, S. aureus Mu50. The note with it: 9 μg/ml, 1 hour at 37° C., FIG. 5.
The next assay deals with T1, SaSecA2 (Staphylococcus aureus, UniProt Q2FUW6).
T1 sequence (Q2FUW6 1-796): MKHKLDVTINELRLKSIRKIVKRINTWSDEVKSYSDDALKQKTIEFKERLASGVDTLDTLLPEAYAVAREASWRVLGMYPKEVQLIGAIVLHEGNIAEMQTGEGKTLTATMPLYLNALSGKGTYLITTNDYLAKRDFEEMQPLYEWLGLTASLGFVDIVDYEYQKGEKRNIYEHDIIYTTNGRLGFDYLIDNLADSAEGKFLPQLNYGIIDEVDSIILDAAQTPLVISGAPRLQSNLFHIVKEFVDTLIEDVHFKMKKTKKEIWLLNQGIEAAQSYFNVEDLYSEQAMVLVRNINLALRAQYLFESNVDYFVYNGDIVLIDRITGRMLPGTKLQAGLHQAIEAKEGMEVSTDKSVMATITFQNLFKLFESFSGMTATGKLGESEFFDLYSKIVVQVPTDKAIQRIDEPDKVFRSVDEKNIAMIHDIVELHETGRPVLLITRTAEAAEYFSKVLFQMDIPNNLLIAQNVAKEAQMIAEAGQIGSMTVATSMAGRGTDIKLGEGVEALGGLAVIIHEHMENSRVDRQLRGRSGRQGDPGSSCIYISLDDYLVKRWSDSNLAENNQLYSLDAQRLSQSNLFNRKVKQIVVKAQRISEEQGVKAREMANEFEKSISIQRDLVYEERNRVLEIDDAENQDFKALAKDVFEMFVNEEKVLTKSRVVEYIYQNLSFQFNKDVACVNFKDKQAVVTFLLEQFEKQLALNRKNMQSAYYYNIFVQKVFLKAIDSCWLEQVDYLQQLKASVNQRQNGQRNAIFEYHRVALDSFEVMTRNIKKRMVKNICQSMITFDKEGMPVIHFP
Nature of the assay: ATPase activity assay (malachite green), SaSecA2. The note with it: IC50, ATPase activity, SaSecA2, Table 7.

A further assay has as its system S. aureus 6538. Nature of the assay: Bacteriostatic effect, S. aureus 6538. The note with it: Staphylococcus aureus, 6538, read-out: Bacteriostatic effect, MIC, S. aureus 6538.
Another assay deals with S. aureus N315. The assay can be described thus: Bacteriostatic effect, S. aureus N315. The note with it: Staphylococcus aureus, N315, read-out: Bacteriostatic effect, MIC, S. aureus N315.

pIC50: −log10 of the molar value. Values after ≈ are worked out from the molar mass of the structure shown.

EcSecA, sequence (P10408 whole entry): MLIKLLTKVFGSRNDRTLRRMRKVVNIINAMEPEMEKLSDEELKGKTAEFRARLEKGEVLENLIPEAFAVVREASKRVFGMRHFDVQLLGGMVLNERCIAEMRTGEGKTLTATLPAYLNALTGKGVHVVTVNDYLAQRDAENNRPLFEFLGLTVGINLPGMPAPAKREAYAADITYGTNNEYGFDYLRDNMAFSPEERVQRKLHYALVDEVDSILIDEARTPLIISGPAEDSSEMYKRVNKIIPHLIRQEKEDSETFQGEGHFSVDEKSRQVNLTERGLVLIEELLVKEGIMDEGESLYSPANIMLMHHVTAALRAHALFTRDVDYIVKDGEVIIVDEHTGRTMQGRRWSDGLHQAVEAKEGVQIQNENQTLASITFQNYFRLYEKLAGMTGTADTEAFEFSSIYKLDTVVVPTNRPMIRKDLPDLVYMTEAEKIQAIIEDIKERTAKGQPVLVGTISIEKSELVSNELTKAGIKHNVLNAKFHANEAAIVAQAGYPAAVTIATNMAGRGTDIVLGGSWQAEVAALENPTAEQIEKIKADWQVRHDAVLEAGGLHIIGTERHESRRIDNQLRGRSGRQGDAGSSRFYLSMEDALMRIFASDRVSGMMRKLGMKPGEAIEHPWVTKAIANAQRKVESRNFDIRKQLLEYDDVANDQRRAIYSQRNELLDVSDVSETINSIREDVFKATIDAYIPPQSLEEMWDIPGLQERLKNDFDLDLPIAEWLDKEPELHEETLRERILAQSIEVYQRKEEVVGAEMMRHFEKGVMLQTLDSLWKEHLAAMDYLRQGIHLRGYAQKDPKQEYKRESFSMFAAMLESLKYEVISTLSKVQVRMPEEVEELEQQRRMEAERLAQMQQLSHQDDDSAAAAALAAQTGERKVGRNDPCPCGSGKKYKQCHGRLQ

For `CCCCCCC1c2ccc(O)cc2Oc2cc(O)ccc21` [SCA-50], the MIC with S. aureus Mu3, in the assay on S. aureus 6538 and in the assay with S. aureus N315 was 3.7 µg/mL (≈ 12.4 µM) throughout. The pIC50 at EcSecA is 5.64; at BsSecA, 5.60; on BaSecA1, 6.00; at SaSecA2, 4.76. The “Bactericidal activity, log numbers killed, S. aureus Mu50” value in the assay on S. aureus Mu50 was “more than 3 log numbers”.

The MIC is the lowest concentration that inhibits growth of the organism. The term pIC50 denotes the negative decadic logarithm of the IC50, by convention in mol/L.
